Results on two compounds are retold here after patent US20080241265A1, “Pharmaceutical Combinations Containing Lamivudine, Stavudine and Nevirapine” (priority 2005, published 2008).

“Also recorded” adds a separate entry of the source.

The nature of the data set: Compatibility study of homogeneous mixtures of the active ingredients (appearance and impurities after storage). The note with it: conclusion from the four-week mixture study. The data set is classed as physicochemical. The text has this: Study was designed so as to evaluate the physico-chemical parameters of these three drugs.

`Cc1cn([C@H]2C=C[C@@H](CO)O2)c(=O)[nH]c1=O` [stavudine, (3′-deoxythymidin-2′-ene(3′-deoxy-2′,3′-didehydrothymidine)]: the “Compatibility with the other active ingredient” value was “incompatible with nevirapine”.
The result for `Nc1ccn([C@@H]2CS[C@H](CO)O2)c(=O)n1` [Lamivudine, (2R-cis)-4-Amino-1-[2-(hydroxymethyl) 1,3-oxathiolan-5-yl]-2(1H)-pyrimidinone] reads “compatible with Nevirapine; also recorded: not with Stavudine”.
